# Measurements reported in patent US11311598B2, “Peptides and analogs for use in the treatment of oral mucositis” (Soligenix, Inc., priority 2013, dated 2022).
# Where no end group is shown, it is not given here.
# Tests used:
# male C57BL/6 mice = assay: DSS-induced colitis model; format: in vivo, mouse
# Procedure: The ability of IV RIVPA (SEQ ID NO. 5), administered pre-emptively or therapeutically, to directly protect GI mucosal surfaces was confirmed in a DSS-induced colitis model. In this model, DSS was administered as a 3% DSS solution in the drinking water of male C57BL/6 mice from Days 0 to 5 of the study. Colitis was monitored by video endoscopy on Days 7, 14 and 21. RIVPA (SEQ ID NO. 5) (25 mg/kg IV) was administered every third day from Days 0 to 18 (Q3d d0-18), from Days 3 to 18 (Q3d d3-18) or from Days 6 to 18 (Q3d d6-18). […] However, reduction in Day 7 scores was only observed in groups which had received at least 2 doses of RIVPA (SEQ ID NO. 5) by that time (i.e., Q3d d0-18 and Q3d d3-18 but not Q3d d6-18). […] Statistical analysis was undertaken using t-tests and an asterisk indicates statistically significant differences from control (p<0.05).
# MRSA (strain USA300) = assay: MRSA bacteremia model in nu/nu mice lacking T-cells; format: in vivo, mouse; conditions: female nu/nu mice, single dose 50 mg/kg IV 4 h prior to infection; 14 days
# Procedure: RIVPA (SEQ ID NO. 5) is also effective when administered by itself. Multiple studies with IV administered RIVPA (SEQ ID NO. 5) were conducted in a MRSA bacteremia model. […] In the first study, MRSA (USA300, 7.3 log 10 cfu) was administered via IV injection into the tail vein of female Balb/c mice at time 0. Four hours prior to infection, a single dose of saline or RIVPA (SEQ ID NO. 5) at the indicated dose levels was injected IV into the tail vein. Sub-optimal antibiotic treatment (linezolid, 6.25 mg/kg) was administered once orally immediately after infection. Survival was monitored for 21 days after the infection. In the second study, RIVPA (SEQ ID NO. 5) (IV) or saline (IV) was administered once 4 h prior to infection with MRSA (strain USA300, 7.0 log10 cfu) via the tail vein into female nu/nu mice. Statistically significant differences (i.e., p≤05) in survival were found with the 50 mg/kg dose level as assessed using Kaplan Meier analysis of each treatment group relative to the saline control.
# [1] = test system: Klebsiella pneumoniae (Catalog No. 43816, ATCC); assay: Klebsiella peritoneal infection model; format: in vivo, mouse
# Procedure: RIVPA (SEQ ID NO. 5) treatment (24 mg/kg) was administered either IP (24 h prior to infection or 4 h post-infection) or IV (4 h post-infection) to female Balb/c mice (N=8/group) inoculated with Klebsiella pneumoniae (Catalog No. 43816, ATCC) at either 2.8×10^5 cfu (FIG. 13—panel A) or 5.3×10^2 cfu (FIG. 13—panel B) and survival was monitored over 24 h. A survival endpoint is shown for animals receiving the higher inoculum of bacteria (panel A).
# healthy volunteers = assay: Phase 1 study in healthy volunteers, safety (SAD and MAD); format: in vivo, human
# Text: Clinical experience with RIVPA (SEQ ID NO. 5) was obtained in a Phase 1 Study. The primary objective of the study was to determine the maximum tolerated dose (MTD) of single and repeat ascending doses of RIVPA (SEQ ID NO. 5) injectable solution following IV administration in healthy volunteers. The secondary objectives of this study included the assessment of the dose limiting toxicity (DLT), safety, PK and pharmacodynamic (PD) profiles of RIVPA (SEQ ID NO. 5) after single and repeated ascending IV doses of RIVPA (SEQ ID NO. 5). The study was divided into 2 phases: a single-ascending dose (SAD) phase and a multiple-ascending dose (MAD) phase.
# Single IV doses of RIVPA (SEQ ID NO. 5) were well tolerated up to the maximum tested (8 mg/kg) and daily IV doses were well tolerated up to the maximum tested (6.5 mg/kg for 7 days).
# The most frequently reported TEAEs (observed in more than one subject who received RIVPA (SEQ ID NO. 5) and in a higher proportion (%) than placebo subjects) were study treatment procedure-related events (General Disorders and Administration Site Conditions) such as vessel puncture site haematoma, vessel puncture site reaction and vessel puncture site pain. All vessel puncture-related events were mild and determined to be unrelated to study treatment by the QI. The second most frequently reported TEAEs were Nervous System Disorders, specifically headache and dizziness; these events were only mild to moderate. All other TEAEs were reported by only 1 subject at any given dose level (maximum of 3 dose levels).
# The incidence of “possibly-related” events was also higher in the 2 highest dose levels. However, due to the small sample sizes (4 subjects received active treatment in each cohort), it was not possible to conclude whether the results definitely represented a dose-response. The majority of the TEAEs were not related to study treatment and were mild in severity with only one event reported as moderate. The most frequently reported TEAEs for subjects who received RIVPA (SEQ ID NO. 5) were General Disorders and Administration Site Conditions (i.e., procedure-related events) such as vessel puncture site haematoma, vessel puncture site reaction, and vessel puncture site pain. All vessel puncture-related events were mild and judged to be unrelated to treatment. Increased alanine aminotransferase (ALT) and back pain were reported by 3 (15.0%) subjects who received RIVPA (SEQ ID NO. 5) and these events were observed by only one (10.0%) subject who received the placebo.
# [2] = multiple ascending dose phase, subjects who received RIVPA
substance,measurement,setting,value
"RIVPA-NH2 [RIVPA (SEQ ID NO. 5), RIVPA]",endoscopic colitis severity score,"male C57BL/6 mice; Day 7, Q3d d0-18",reduction
same,endoscopic colitis severity score,"male C57BL/6 mice; Day 7, Q3d d3-18",reduction
same,endoscopic colitis severity score,"male C57BL/6 mice; Day 14, all regimens, 25 mg/kg IV every third day",statistically significant reduction
same,endoscopic colitis response,"male C57BL/6 mice; Day 21, all 3 treatment groups",responding in a similar manner
same,"edema and necrosis, histopathology of the colon","male C57BL/6 mice; Day 21, some RIVPA treated groups",statistically significantly decreased
same,severity of DSS-induced colitis,"male C57BL/6 mice; endoscopy days 7, 14, 21 and histopathology day 21, FIG. 3",reduces
same,survival over the saline control,MRSA (strain USA300),statistically significant enhanced survival
same,systemic versus local administration,[1]; 24 mg/kg IV vs IP,as good or better than local administration
same,survival at the lower inoculum,"[1]; 5.3×10^2 cfu, 24 h",survived in all groups
same,survival,"[1]; female Balb/c mice, 24 mg/kg IP or IV, 24 h",increased survival
same,"vital sign measurements, clinical laboratory or ECG results versus placebo",healthy volunteers; Phase 1,No safety concerns or significant differences
same,deaths and serious Adverse Events,"healthy volunteers; Phase 1, SAD and MAD","no deaths and no clinically significant, severe, or serious Adverse Events"
same,dose limiting toxicities (DLTs),"healthy volunteers; Phase 1, SAD and MAD",no dose limiting toxicities
same,MTD,healthy volunteers; either phase of the trial,not reached
same,daily IV doses well tolerated up to the maximum tested,"healthy volunteers; healthy volunteers, daily for 7 days",≤ 6.5 mg/kg
same,single IV doses well tolerated up to the maximum tested,"healthy volunteers; healthy volunteers, single-ascending dose phase",≤ 8 mg/kg
same,incidence of TEAEs,"healthy volunteers; multiple ascending dose phase, 4.5 and 6.5 mg/kg/day",highest incidence
same,Increased alanine aminotransferase (ALT),healthy volunteers; [2],3 (15.0%) subjects
same,back pain,healthy volunteers; [2],3 (15.0%) subjects
same,incidence of TEAEs,healthy volunteers; single ascending dose phase,not dose-related
